Test results: patent US11759477B2, “Compositions of nitrates and methods of use thereof” (Heartbeet Ltd., priority 2007, dated 2023)

What was measured:
[1] = Oral Glucose Tolerance Test after nitrate pre-treatment (n=3); assay type: in vivo, human; settings: 75 g glucose, 60 min after nitrate 1 mmol/kg body weight NaNO3, n=3; placebo 8.2
Description: FIGS. 7a-7c consist of three graphs, showing changes in blood glucose levels after an oral challenge with glucose for three test subjects in a double-blind, placebo-controlled cross-over study (FIGS. 7a, 7b and 7c). A standard oral glucose tolerance test was performed. The subjects (healthy non-smoking volunteers) had their diet supplemented for 3 days with either sodium chloride (placebo) or sodium nitrate (Nitrate) at a dose of 0.1 mmol/kg body weight/day.
The increase in plasma glucose after a standard Oral Glucose Tolerance Test (75 g glucose in 250 ml water) is lower when measured after nitrate pre-treatment (1 mmol/kg body weight NaNO3) compared to placebo (NaCl). The study was performed with three healthy test subjects in a double-blind study. Glucose ingestion started 60 min after the nitrate ingestion. Blood glucose levels were measured during the 120 min period after the glucose load (n=3). At 30 min mean plasma glucose was 8.2 mmol/l with placebo and in the same subjects 6.5 mmol/l after nitrate supplementation.

[2] = Blood pressure at rest after dietary sodium nitrate supplementation; assay type: in vivo, human; settings: 0.1 mmol/kg body weight/day oral, 3 days, mean±SD, n=9
Description: Subjects: Nine healthy, well trained (VO2peak 55±3.7 ml×kg-1×min-1), males (28±6 years) volunteered for the study. All subjects were trained cyclists or triathletes and well accustomed to the testing procedure. It was chosen to use well-trained subjects to avoid training effects from the tests such as enhanced VO2peak or better mechanical efficiency during submaximal exercise. The protocol was approved by the regional ethics committee in Stockholm and all subjects gave their written consent prior to participation.
Dietary supplementation with nitrate: The aim with the present study was to investigate the effects of two distinct dietary patterns, one with higher, and one with lower than normal nitrate intake. […] During two three-day periods, separated by a washout interval of ten days, the subjects were instructed to avoid all foods with moderate or high nitrate content (all vegetables, all cured meats, strawberries, grapes, and tea). In addition, they were told to restrain from alcohol and tobacco products. Otherwise they were free to eat any food they liked during the three days of restricted diet. The subjects were randomized to start with either ingestion of 0.1 mmol sodium nitrate/kg body weight/day dissolved in water or an equal amount of sodium chloride (placebo). The daily dose was divided and ingested three times daily. The different solutions could not be distinguished by taste or appearance. The daily nitrate dose corresponded to the amount normally found in 150-250 gram of a nitrate-rich vegetable such as spinach, lettuce or beetroot. The last dose of nitrate or placebo was ingested in the morning on the day of measurement (see the main tests below). The order between the nitrate supplementation period (NIT) and the placebo period (CON) was balanced.
The main tests: The subjects refrained from heavy exercise three days prior to the main tests and avoided all exercise the day before the tests. They were also told to eat their last light meal at least 3 hours before the start of the tests. […]

[3] = Plasma nitrite after intraperitoneal nitrate in wild type, germ free and eNOS knockout mice; assay type: in vivo; settings: 10 mg/kg ip, 1 hour later
Description: Three different strains of mice—wild type (n=5 placebo, n=5 nitrate), germ free (n=5 placebo, n=5 nitrate) and eNOS knockout mice (n=2 placebo, n=3 nitrate), were given an intra peritoneal injection of 10 mg/kg body weight nitrate or placebo (NaCl) and plasma level of nitrite measured 1 hour later.

[4] = Oral Glucose Tolerance Test after three-day sodium nitrate supplementation (n=8); assay type: in vivo, human; settings: 75 g glucose, 0.1 mmol/kg body weight/day for three days
Description: FIG. 8 is a graph showing changes in blood glucose levels after an oral challenge with glucose in 8 additional subjects in a double-blind, placebo-controlled cross-over study. A standard oral glucose tolerance test was performed. The subjects (healthy non-smoking volunteers) had their diet supplemented for 3 days with either sodium chloride (PLACEBO) or sodium nitrate (NITRATE) at a dose of 0.1 mmol/kg/day. Data are presented as mean±SEM.
The lower increase in plasma glucose after nitrate pre-treatment was verified in a further study wherein a standard Oral Glucos Tolerance Test (75 g glucose) was performed in 8 healthy non-smoking subjects after a three-day supplementation with either sodium chloride or sodium nitrate at equal molar amounts (0.1 mmol/kg body weight/day). […] Blood glucose levels were measured at two time points before (−10 and 0 min) and at 15, 30, 45, 60, 75, 90, 105 and 120 min after glucose intake (n=8). At the occasion when the subjects had taken nitrate, the area under the curve for blood glucose was smaller compared to when they had ingested placebo.

[5] = assay type: in vivo, human
[6] = Post-ischemic abdominal aortic blood flow after nitrate infusion; assay type: in vivo; settings: rats, 10 mg/kg iv bolus + 3 mg/kg/h
Description: Rats received an intravenous bolus dose of 10 mg/kg nitrate (NaNO3, n=4) or placebo (NaCl, n=4)) diluted in PBS (pH 7.4) followed by continuous infusion of 3 mg/kg body weight/h. An hour after the addition of nitrate (open boxes) or placebo (filled circles), L-NAME (50 mg/kg) was given, and 10 minutes later, a supra renal clamping of the abdominal aorta was performed. After 30 minutes of ischemia the clamp was removed and the abdominal aortic blood flow was monitored during 60 minutes.

[7] = not given; remark: listed apart in the source
clinical = experiment: clinical
Description: (§1) Prior to the test the subjects had been on a diet low in nitrate for one day and had been fasting for at least 8 h.

[8] = remark: listed apart in the source
Description: FIG. 2 is a graph showing changes in oxygen consumption (VO2) following iv infusion of sodium nitrite in increasing doses. Nitrite was infused over a 10 min period in non-smoking healthy male volunteers (30-70 years).
The present inventors have been studying the effects of nitrate and nitrite on various physiological functions including blood pressure, glucose metabolism and energy expenditure in vivo. In the examples below, unless otherwise noted, nitrate was administered perorally and nitrite was administered intravenously (iv). Oxygen consumption was measured using indirect calorimetry.
as §1

[9] = anesthetized rats, 10 mg/kg bolus NaNO3

## O=[N+]([O-])[O-].[Na+] [sodium nitrate]
[1]
  Mean plasma glucose at 30 min: 6.5 mmol/L
[2]
  Average resting systolic blood pressure: 112±8 mmHg
  Resting diastolic blood pressure: 68±5.5 mmHg
[2]; listed as NIT
  Average resting systolic blood pressure: 120+/−5.9 mmHg
[3]
  Nitrate-induced increase in plasma nitrite across wild type, germ free and eNOS knockout mice: equal
[4]
  Area under the curve for blood glucose, vs placebo: smaller
0.1 mmol/kg/day oral, 3 days, after maximal work test
  Plasma nitrate levels immediately after the maximal work test: 175 ± 61 µM
0.1 mmol/kg/day oral, 3 days, at rest
  Plasma levels of nitrate at rest: 182000 ± 55000 nM
Compared with placebo period
  Decrease in nitrite concentrations during exercise, vs CON: more pronounced
In vivo, po
  Plasma nitrite levels at rest: 226 ± 87 nM
  Plasma nitrite levels immediately after the maximal work test: 137 ± 48 nM
p=0.08
  Increase in c-GMP concentrations after the maximal work as compared to rest, vs CON: tended to be higher
p=0.8
  Change of plasma nitrate during exercise: did not change
[5]; 45-80% VO2peak
  Average lowering of VO2 vs CON over the 4 submaximal work rates: 0.15 L/min
[5]; any of the submaximal work rates
  VE, VE/VO2 or respiratory exchange ratio (RER), NIT vs CON: No significant differences
[5]; any work load (submax or max)
  Rating of perceived exertion (Borg RPE-scale), NIT vs CON: no difference
[5]; average, p=0.02 vs CON
  Gross efficiency (GE): 21.1%
[5]; four lowest work rates, linear regression, p=0.04 vs CON
  Delta efficiency (DE): 22.9±1.9%
[5]; in vivo
  [Hla] (plasma lactate), NIT vs CON: No significant differences
[5]; maximal work, no significant difference, p=0.29
  VO2peak: 4.49 ± 0.44 L/min
[5]; maximal work, p=0.35
  Maximal work rate: 360.6±32.8 watt
[5]; maximal work, p=0.5
  VEmax: 182 ± 21.4 L/min
[5]; maximal work, p=0.94
  HRmax: 189.8±7.0 beats×min-1
[5]; submaximal work
  Heart rate (HR), NIT vs CON: no difference
  VO2 during the four work rates corresponding to 45-80% VO2peak, vs placebo period: significantly lower
[5]; submaximal work, 0.1 mmol/kg/day oral, 3 days, p=0.003 vs CON
  VO2 at 80% of VO2peak: 3.44 ± 0.31 L/min
[5]; submaximal work, p=0.08 vs CON
  Oxygen pulse: 20.3±1.9 ml×beat-1
[6]
  Post-ischemic blood flow in early (0-10 minutes) and late (10-60 minutes) phase, vs placebo: higher blood flow
[6]; L-NAME, 30 min ischemia, control rats 20% of pre-ischemic values
  Abdominal aortic blood flow after 60 min of reperfusion: ~75 % of control values
[7]; [9]
  Concentration of plasma nitrate after infusion: increases dramatically
  Plasma nitrite concentrations after infusion: increased
[7]; rats, p<0.05
  Increase in plasma nitrite, nitrate only vs nitrate+allopurinol: significantly greater

## O=NO [sodium nitrite]
clinical; basal 1.1-1.3 mmol/l, did not change significantly
  Methemoglobin after infusion of nitrite: 1.1 to 1.4 mmol/L
clinical; human, plasma, iv, 10 nmol/kg body weight/min
  concentration at 10 min: 370 to 480 nM
[8]; after 10 min of iv infusion, n=4, major drop at 10 nmoles/kg body weight/min
  Reduction of resting energy expenditure: 10-25%
[8]; iv 1 nmol/kg body weight/min, 10 min observation period
  Effect on energy expenditure / oxygen consumption: no obvious effects
[8]; iv 100 nmol/kg body weight/min
  Oxygen consumption compared to the 10 nmol dose: no further decrease in oxygen consumption
